Measured values taken from US20070117743A1, “New antitumoral compounds” (priority 2003, published 2007).
Where a SMILES comes first, the peptide text is derived from it. Bridges are numbered along the chain shown (N, C = ends). [ ]: non-standard residue; d: D form. The star is where a group is joined. d(aIle) = CC[C@H](C)[C@@H](N)C(=O)O; d(aThr) = C[C@@H](O)[C@@H](N)C(=O)O; Hexanoyl(5-Me) = CC(C)CCCC(=O)*; Orn = NCCC[C@H](N)C(=O)O; Dhb = C/C=C(\N)C(=O)O

Experiments:
Assay type in all cases: cell-based, human
SK-MEL-28 = assay: SRB colorimetric assay of cell growth and viability, SK-MEL-28; details: 48 hours exposure; for CC50: read-out: LC50 MEL-28
Excerpt: (§1) The finality of this assay is to interrupt the growth of a “in vitro” tumor cell culture by means a continued exhibition of the cells to the sample to be testing.
(§2) This form of the assay employs 96 well cell culture microplates of 9 mm diameter (Faircloth, 1988; Mosmann, 1983). Most of the cell lines are obtained from American Type Culture Collection (ATCC) derived from different human cancer types.
(§3) Cells are maintained in RPMI 1640 10% FBS, supplemented with 0.1 g/l penicillin and 0.1 g/l streptomycin sulfate and then incubated at 37° C., 5% CO2 and 98% humidity. For the experiments, cells were harvested from subconfluent cultures using trypsin and resuspended in fresh medium before plating.
(§4) Cells are seeded in 96 well microtiter plates, at 5×10^3 cells per well in aliquots of 195 μL medium, and they are allowed to attach to the plate surface by growing in drug free medium for 18 hours. Afterward, samples are added in aliquots of 5 μL in a ranging from 10 to 10^−8 μg/mL, dissolved in DMSO:EtOH:PBS (0.5:0.5:99). After 48 hours exposure, the antitumor effect are measured by the SRB methodology: cells are fixed by adding 50 μL of cold 50% (wt/vol) trichloroacetic acid (TCA) and incubating for 60 minutes at 4° C. Plates are washed with deionized water and dried. One hundred μL of SRB solution (0.4% wt/vol in 1% acetic acid) is added to each microtiter well and incubated for 10 minutes at room temperature. Unbound SRB is removed by washing with 1% acetic acid. Plates are air dried and bound stain is solubilized with Tris buffer. Optical densities are read on a automated spectrophotometric plate reader at a single wavelength of 490 nm.
(§5) The values for mean+/− SD of data from triplicate wells are calculated. Some parameters for cellular responses can be calculated: GI=growth inhibition, TGI=total growth inhibition (cytostatic effect) and LC=cell killing (cytotoxic effect).

A-549 = assay: SRB colorimetric assay of cell growth and viability, A-549; details: 48 hours exposure; for GI50: read-out: GI50 A-549; for CC50: read-out: LC50 A-549
Excerpt: as §1, §2, §3, §4, §5

K-562 = assay: SRB colorimetric assay of cell growth and viability, K-562; details: 48 hours exposure; for CC50: read-out: LC50 K-562
Excerpt: as §1, §2, §3, §4, §5

HT-29 = assay: SRB colorimetric assay of cell growth and viability, HT-29; details: 48 hours exposure; for GI50: read-out: GI50 HT-29; for CC50: read-out: LC50 HT-29
Excerpt: as §1, §2, §3, §4, §5

LoVo-Dox = assay: SRB colorimetric assay of cell growth and viability, LoVo-Dox; details: 48 hours exposure; for CC50: read-out: LC50 LOVO-DOX
Excerpt: as §1
A colorimetric type of assay, using sulforhodamine B (SRB) reaction has been adapted for a quantitative measurement of cell growth and viability [following the technique described by Philip Skehan, et al. (1990), New colorimetric cytotoxicity assay for anticancer drug screening, J. Natl. Cancer Inst., 82:1107-1112].
as §2, §3, §4, §5

HeLa = assay: SRB colorimetric assay of cell growth and viability, HeLa; details: 48 hours exposure; for CC50: read-out: LC50 HELA
Excerpt: as §1, §2, §3, §4, §5

IGROV-ET = assay: SRB colorimetric assay of cell growth and viability, IGROV-ET; details: 48 hours exposure; for CC50: read-out: LC50 IGROV-ET
Excerpt: as §1, §2, §3, §4, §5

LoVo = assay: SRB colorimetric assay of cell growth and viability, LoVo; details: 48 hours exposure; for CC50: read-out: LC50 LOVO
Excerpt: as §1, §2, §3, §4, §5

DU-145 = assay: SRB colorimetric assay of cell growth and viability, DU-145; details: 48 hours exposure
Excerpt: as §1, §2, §3, §4, §5

PANC-1 = assay: SRB colorimetric assay of cell growth and viability, PANC-1; details: 48 hours exposure; for CC50: read-out: LC50 PANC-1
Excerpt: as §1, §2, §3, §4, §5

HeLa-APL = assay: SRB colorimetric assay of cell growth and viability, HeLa-APL; details: 48 hours exposure; for CC50: read-out: LC50 HELA-APL
Excerpt: as §1, §2, §3, §4, §5

IGROV-1 = assay: SRB colorimetric assay of cell growth and viability, IGROV-1; details: 48 hours exposure
Excerpt: as §1, §2, §3, §4, §5

SMILES | GI50 (SK-MEL-28) [µM] | TGI MEL-28 (SK-MEL-28) [Molar] | CC50 (SK-MEL-28) [µM] | TGI A-549 (A-549) [Molar] | GI50 (A-549) [µM] | CC50 (A-549) [µM] | GI50 (K-562) [µM] | TGI K-562 (K-562) [Molar] | CC50 (K-562) [µM] | TGI HT-29 (HT-29) [Molar] | GI50 (HT-29) [µM] | CC50 (HT-29) [µM] | GI50 (LoVo-Dox) [µM] | TGI LOVO-DOX (LoVo-Dox) [Molar] | CC50 (LoVo-Dox) [µM] | GI50 (HeLa) [µM] | TGI HELA (HeLa) [Molar] | CC50 (HeLa) [µM] | GI50 (IGROV-ET) [µM] | TGI IGROV-ET (IGROV-ET) [Molar] | further results
C/C=C1\NC(=O)[C@H](Cc2ccccc2)NC(=O)[C@@H](C(C)C)NC(=O)[C@@H]([C@@H](C)CC)NC(=O)[C@H](NC(=O)[C@H](NC(=O)[C@H](CCCN)NC(=O)[C@H]2CCCN2C(=O)[C@H](NC(=O)[C@@H](NC(=O)CNC(=O)CCCC(C)C)C(C)C)C(C)C)[C@@H](C)CC)[C@@H](C)OC(=O)[C@H](C(C)C)NC1=O [Compound 53, [Gly^12, noD-Val^13]-KF] ({Hexanoyl(5-Me)}-GV[dV][dP][Orn][d(aIle)][d(aThr)][d(aIle)][dV]F[Dhb]V; ester 7-C) | 7.49 | 7.49E−06 | 7.49 | 7.49E−06 | 7.49 | 7.49 | 7.49 | 7.49E−06 | 7.49 | 7.49E−06 | 7.49 | 7.49 | 7.49 | 7.49E−06 | 7.49 | 7.49 | 7.49E−06 | 7.49 | 3.31 | 7.49E−06 | CC50 (IGROV-ET): 7.49 µM; GI50 (LoVo): 5.29 µM; TGI LOVO (LoVo): 7.49E−06 Molar; CC50 (LoVo): 7.49 µM; GI50 (DU-145): 7.49 µM; LC50 (concentration causing 50% net cell kill) (DU-145): 7.49 µM; TGI DU-145 (DU-145): 7.49E−06 Molar; GI50 (PANC-1): 4.17 µM; TGI PANC-1 (PANC-1): 7.49E−06 Molar; CC50 (PANC-1): 7.49 µM; GI50 (HeLa-APL): 7.49 µM; TGI HELA-APL (HeLa-APL): 7.49E−06 Molar; CC50 (HeLa-APL): 7.49 µM; GI50 (IGROV-1): 7.49 µM; LC50 (concentration causing 50% net cell killing) (IGROV-1): 7.49 µM; TGI IGROV (IGROV-1): 7.49E−06 Molar
C/C=C1\NC(=O)[C@H](Cc2ccccc2)NC(=O)[C@@H](C(C)C)NC(=O)[C@@H]([C@@H](C)CC)NC(=O)[C@H](NC(=O)[C@H](NC(=O)[C@H](CCCN)NC(=O)[C@H]2CCCN2C(=O)[C@H](NC(=O)[C@@H](NC(=O)[C@@H](NC(=O)CNC(=O)CCCC(C)C)[C@@H](C)O)C(C)C)C(C)C)[C@@H](C)CC)[C@@H](C)OC(=O)[C@H](C(C)C)NC1=O [Compound 33, [Gly^13]-KF] | 6.32 | 6.96E−06 | 6.96 | 3.08E−06 | 0.982 | 6.96 | 6.96 | 6.96E−06 | 6.96 | 6.96E−06 | 4.51 | 6.96 | 4.85 | 6.96E−06 | 6.96 | 0.954 | 3.22E−06 | 6.96 | 5.27 | 6.96E−06 | CC50 (IGROV-ET): 6.96 µM; GI50 (LoVo): 3.99 µM; TGI LOVO (LoVo): 6.96E−06 Molar; CC50 (LoVo): 6.96 µM; GI50 (DU-145): 6.96 µM; LC50 (concentration causing 50% net cell kill) (DU-145): 6.96 µM; TGI DU-145 (DU-145): 6.96E−06 Molar; GI50 (PANC-1): 0.385 µM; TGI PANC-1 (PANC-1): 1.70E−06 Molar; CC50 (PANC-1): 5.04 µM; GI50 (HeLa-APL): 6.96 µM; TGI HELA-APL (HeLa-APL): 6.96E−06 Molar; CC50 (HeLa-APL): 6.96 µM; GI50 (IGROV-1): 6.96 µM; LC50 (concentration causing 50% net cell killing) (IGROV-1): 6.96 µM; TGI IGROV (IGROV-1): 6.96E−06 Molar
